Data: patent publication US20220047507A1, “MELFLUFEN DOSAGE REGIMENS FOR CANCER” (ONCOPEPTIDES AB, priority 2015, published 2022)

What was measured:
[1] = system: relapsed-refractory multiple myeloma (RRMM) patients; assay: Safety in patients with RRMM, Example 2b, time point (bii); format: in vivo, human
Method: Example 2: An open label single arm extension on the dose of 40 mg over 30 minutes of Example 1. Intravenous melflufen was administered over 30 minutes on Day 1 of a 21-day cycle or 28-day cycle (in combination with 40 mg dexamethasone (oral or intravenous) treatment on Days 1, 8 and 15) for at least 2 cycles, and up to the stated number of cycles. The cycle length was extended during the Example 2 Clinical Trial from 21 to 28 days per a protocol amendment to allow for a better recovery of neutrophils and thrombocytes before a new cycle is initiated.
Dose reductions from 40 mg to 25 mg melflufen for patients in the trial was possible in connection with adverse effects of thrombocytopenia/neutropenia.
Example 2a results are from a data cut-off of time point (a). Example 2b results are from a data cut-off of time point (bi) for the efficacy data, which was approximately 12 months after time point (a); and from a data cut-off of time point (bii) for the safety data, which was approximately 10 months after time point (a).
By the data cut-off point for safety data (time point (bii)) 40 patients has been dosed with 183 doses of melflufen hydrochloride 40 mg over 30 minutes. A total of 11 patients had dose reductions from 40 mg to 25 mg melflufen during the study. All dose reductions were in connection with AEs of thrombocytopenia/neutropenia. Seven (7) patients (64%) had dose reductions in connection to thrombocytopenia, 3 patients to neutropenia (27%) and 1 patient (9%) to both thrombocytopenia and neutropenia.

[2] = system: primary MM cells from patients; conditions: in vitro, incl. patients relapsing after bortezomib, lenalidomide, dexamethasone; cited from earlier work
MM cells = conditions: in vitro; cited from earlier work
[3] = system: relapsed-refractory multiple myeloma (RRMM) patients; assay: Safety in patients with RRMM, Example 2b, time point (bii); format: in vivo, human; conditions: of the 57 patients in the ongoing melflufen study
[4] = system: MM cell lines resistant to dexamethasone, bortezomib and melphalan; conditions: in vitro; cited from earlier work
[5] = 40 mg melflufen (+dex) treated patients
[6] = 40 mg treated patients, Example 2b
[7] = 40 mg, Example 2b N = 40, listed as melflufen hydrochloride
[8] = Cycle length 21 days, 30 patients, 87 cycles
[9] = Cycle length 28 days, 10 patients, 24 cycles
[10] = of the 11 patients with dose reductions
[11] = of the 40 safety evaluable patients

## CCOC(=O)[C@H](Cc1ccc(F)cc1)NC(=O)[C@@H](N)Cc1ccc(N(CCCl)CCCl)cc1.Cl [melflufen, L-Melphalanyl-4-fluoro-L-phenylalanine ethyl ester]
[1]; [5]
  Grade 3 and 4 febrile neutropenia regardless of relationship: 5%
  Grade 3 and 4 lower respiratory tract infection regardless of relationship: 2%
  Grade 3 and 4 lower respiratory tract infection regardless of relationship, n patients: 1
  Grade 3 and 4 neutropenia regardless of relationship, n patients: 23
  Grade 3 and 4 parainfluenza virus infection regardless of relationship: 2%
  Grade 3 and 4 parainfluenza virus infection regardless of relationship, n patients: 1
  Grade 3 and 4 pneumonia regardless of relationship: 10%
[1]; [6]
  Grade 3/4 hyperglycemia (reported as treatment-related to dexamethasone): 10%
  Grade 3/4 hyperglycemia (reported as treatment-related to dexamethasone), n patients: 4
[1]; 40 mg, Example 2b
  Serious TEAE related to melflufen: Diarrhoea: (5) %
  Serious TEAE related to melflufen: Diarrhoea, number of patients: 2
  Serious TEAE related to melflufen: Escherichia coli sepsis: (2.5) %
  Serious TEAE related to melflufen: Escherichia coli sepsis, number of patients: 1
  Serious TEAE related to melflufen: Febrile Neutropenia: (5) %
  Serious TEAE related to melflufen: Febrile Neutropenia, number of patients: 2
  Serious TEAE related to melflufen: Neutropenia: (5) %
  Serious TEAE related to melflufen: Neutropenia, number of patients: 2
  Serious TEAE related to melflufen: Pneumonia: (10) %
  Serious TEAE related to melflufen: Pneumonia, number of patients: 4
  Serious TEAE related to melflufen: Pyrexia: (5) %
  Serious TEAE related to melflufen: Pyrexia, number of patients: 2
  anemia, all grades, regardless of relationship: 65%
  asthenia, all grades, regardless of relationship: 35%
  diarrhoea, all grades, regardless of relationship: 25%
  nausea, all grades, regardless of relationship: 28%
  neutropenia, all grades, regardless of relationship: 65%
  pyrexia, all grades, regardless of relationship: 43%
  thrombocytopenia, all grades, regardless of relationship: 73%
[1]; 40 mg, Example 2b N = 40
  Anemia, treatment related ≥grade 3: 43%
  Any treatment-related grade 3 and/or grade 4, grade 4: (50) %
  Any treatment-related grade 3 and/or grade 4, ≥grade 3: 85%
  Asthenia, treatment related ≥grade 3: (5) %
  Blood and lymphatic system disorders, treatment related grade 4: (50) %
  Blood and lymphatic system disorders, treatment related ≥grade 3: (82.5) %
  Fatigue, treatment related ≥grade 3: (5) %
  Febrile neutropenia, treatment related ≥grade 3: (5) %
  General disorders and administration site conditions, treatment related ≥grade 3: (17.5) %
  Hyperglycemia, treatment related grade 4: (3) %
  Hyperglycemia, treatment related ≥grade 3: (8) %
  Infections and infestations, treatment related ≥grade 3: (5) %
  Investigations, treatment related ≥grade 3: (12.5) %
  Metabolism and nutrition disorders, treatment related grade 4: (3) %
  Metabolism and nutrition disorders, treatment related ≥grade 3: (8) %
  Neutropenia, treatment related grade 4: (30) %
  Neutropenia, treatment related ≥grade 3: 58%
  Neutrophil count decreased, treatment related ≥grade 3: (10) %
  Pneumonia, treatment related ≥grade 3: (5) %
  Pyrexia, treatment related ≥grade 3: (5) %
  Thrombocytopenia, treatment related grade 4: (40) %
  Thrombocytopenia, treatment related ≥grade 3: 63%
  White blood cell count decreased, treatment related ≥grade 3: (5) %
[1]; [7]
  Anemia, treatment related ≥grade 3: (43) %
  Any treatment-related grade 3 and/or grade 4, ≥grade 3: (85) %
  Neutropenia, treatment related ≥grade 3: (57.5) %
  Thrombocytopenia, treatment related ≥grade 3: (62.5) %
[1]; 40 mg, Example 2b, 40 patients
  patients with Serious TEAEs: 40%
  patients with treatment-related Serious TEAEs: 30%
[1]; 14 patients
  median number of cycles before discontinuation due to bone marrow suppression: 3.5 cycles
[1]; [8]
  Cycles with a dose interruption: (37) % of total
  Patients with a dose interruption: (57) % of total
  Patients with a dose reduction: (37) % of total
[1]; [9]
  Cycles with a dose interruption: (13) % of total
  Patients with a dose interruption: (30) % of total
  Patients with a dose reduction: (20) % of total
[1]; Example 2b
  incidence of Grade 3-4 pneumonia: 14%
  infectious adverse effects with fatal outcomes possibly related to the study treatments: 8%
  infectious adverse effects with fatal outcomes possibly related to the study treatments, n patients: 3
[1]; Example 2b, 40 patients
  patients with TEAEs leading to dose reduction of melflufen from 40 mg to 25 mg: 32.5%
[1]; MM patients, clinical trials
  effect on renal function: does not appear to have any effect on renal function
[1]; in the clinical trials
  reports of syncope, seizures, ventricular arrhythmias, ventricular tachycardia, ventricular fibrillation, flutter, torsade de pointes, or sudden deaths: no reports
[1]; [10]
  dose reductions in connection to both thrombocytopenia and neutropenia: 9%
  dose reductions in connection to both thrombocytopenia and neutropenia, n patients: 1
  dose reductions in connection to neutropenia: 27%
  dose reductions in connection to neutropenia, n patients: 3
  dose reductions in connection to thrombocytopenia: 64%
  dose reductions in connection to thrombocytopenia, n patients: 7
[1]; [11]
  treatment discontinuations due to treatment-related bone marrow suppression: 35%
  treatment discontinuations due to treatment-related bone marrow suppression, n patients: 14
[1]; of the 57 patients in the ongoing melflufen study
  fatal events while on treatment or within 30 days of last dose, n patients: 6
[2]
  cytotoxic activity in primary MM cells: Potent cytotoxic activity
MM cells
  intracellular exposure (as AUC) of alkylating agents compared to an equimolar dosage of melphalan: ≥ 20 fold
[3]
  fatal events while on treatment or within 30 days of last dose: 11%
[4]
  cytotoxic activities in resistant MM cell lines: concentrations similar to those observed in the parenteral, non-resistant cell lines
